Among the data in US10562909B2, “Fused quadracyclic compounds, compositions and uses thereof” (Tabomedex Biosciences, LLC, priority 2016, dated 2020) are IC50 values, retold here.

Each structure is given as a SMILES string.

This experiment concerns the target MAPKAPK2 (Homo sapiens, UniProt P49137). Kind of experiment: MK2 Enzymatic Assay. The format is biochemical. The following applies: 0.5 nM MAPKAPK2, 3 μM ATP, 2 μM Ser/Thr4 peptide, 23° C., values given as concentration bins. In outline:
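Percent phosphorylation was derived from coumarin and fluorescein emissions relative to 0% and 100% phospho-peptide controls, read after a 120 min development step. Reactions used 2× stocks of 1 nM kinase, 4 μM peptide and 6 μM ATP; enzyme and peptide sat 20 min before a 120 min ATP reaction.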

Chain of MAPKAPK2 (P49137 whole entry, species assumed): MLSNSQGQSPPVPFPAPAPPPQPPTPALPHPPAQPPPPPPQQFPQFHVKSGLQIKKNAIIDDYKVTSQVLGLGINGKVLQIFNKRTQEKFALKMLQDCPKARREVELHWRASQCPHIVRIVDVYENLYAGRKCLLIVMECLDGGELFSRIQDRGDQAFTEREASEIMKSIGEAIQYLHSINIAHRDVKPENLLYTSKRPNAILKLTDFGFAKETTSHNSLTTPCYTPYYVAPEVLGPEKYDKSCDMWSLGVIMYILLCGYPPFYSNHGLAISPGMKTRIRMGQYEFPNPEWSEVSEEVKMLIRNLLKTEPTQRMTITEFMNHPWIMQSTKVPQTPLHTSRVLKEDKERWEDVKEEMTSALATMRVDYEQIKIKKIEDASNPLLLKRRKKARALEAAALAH

Regarding `CNC[C@@H]1CCN(c2ccc3c(c2)Cn2cc(-c4ccc(C#N)cc4)cc2-c2ncnn2-3)C1` [Compound 262, (S)-4-(7-(3-((methylamino)methyl)pyrrolidin-1-yl)-9H-benzo[e]pyrrolo[1,2-a][1,2,4]triazolo[5,1-c][1,4]diazepin-12-yl)benzonitrile], the half-inhibitory concentration (IC50) (usually the concentration that inhibits the measured activity by half) is less than 0.05 µM.

As to `CNC[C@H]1CCN(c2ccc3c(c2)Cn2cc(-c4ccc(C#N)cc4)cc2-c2ncnn2-3)C1` [Compound 263, (R)-4-(7-(3-((methylamino)methyl)pyrrolidin-1-yl)-9H-benzo[e]pyrrolo[1,2-a][1,2,4]triazolo[5,1-c][1,4]diazepin-12-yl)benzonitrile], the half-inhibitory concentration (IC50) lay in the range of 0.1 to 0.2 µM.

Turning to `CNCc1cnc2n1-c1ccc(N3CC[C@@H](N(C)C)C3)cc1Cn1cc(-c3ccc(C#N)cc3)cc1-2` [Compound 276, 4-(7-((R)-3-(dimethylamino)pyrrolidin-1-yl)-3-((methylamino)methyl)-9H-benzo[e]imidazo[2,1-c]pyrrolo[1,2-a][1,4]diazepin-12-yl)benzonitrile], the IC50 was less than 0.05 µM.

`CN(C)[C@@H]1CCN(c2ccc3c(c2)Cn2cc(-c4ccc(C#N)cc4)cc2-c2ncc(CN)n2-3)C1` [Compound 277, 4-(3-(aminomethyl)-7-((R)-3-(dimethylamino)pyrrolidin-1-yl)-9H-benzo[e]imidazo[2,1-c]pyrrolo[1,2-a][1,4]diazepin-12-yl)benzonitrile] yielded a half-maximal inhibitory concentration (IC50) of 0.05 to 0.1 µM. Next, `COCc1cnc2n1-c1ccc(N3CC[C@@H](N(C)C)C3)cc1Cn1cc(-c3ccc(C#N)cc3)cc1-2` [Compound 278, 4-(7-((R)-3-(dimethylamino)pyrrolidin-1-yl)-3-(methoxymethyl)-9H-benzo[e]imidazo[2,1-c]pyrrolo[1,2-a][1,4]diazepin-12-yl)benzonitrile]: less than 0.05 µM; `CNCC1CN(c2ccc3c(n2)Cn2cc(-c4ccc(C#N)cc4)cc2-c2nccn2-3)C1` [Compound 295, 4-(7-(3-((methylamino)methyl)azetidin-1-yl)-9H-imidazo[2,1-c]pyrido[3,2-e]pyrrolo[1,2-a] [1,4]diazepin-12-yl)benzonitrile]: less than 0.05 µM.

Turning to `CN1CC2(CCN(c3ccc4c(n3)Cn3cc(-c5ccc(C#N)cc5)cc3-c3nccn3-4)C2)C1` [Compound 297, 4-(7-(2-methyl-2,6-diazaspiro[3.4]octan-6-yl)-9H-imidazo[2,1-c]pyrido[3,2-e]pyrrolo[1,2-a] [1,4]diazepin-12-yl)benzonitrile], the half-inhibitory concentration (IC50) was in the range of 0.05 to 0.1 µM. For `CN(C)C[C@H]1CN(c2ccc3c(n2)Cn2cc(-c4ccc(C#N)cc4)cc2-c2nccn2-3)C[C@H]1O` [Compound 298, 4-(7-((3S,4S)-3-((dimethylamino)methyl)-4-hydroxypyrrolidin-1-yl)-9H-imidazo[2,1-c]pyrido[3,2-e]pyrrolo[1,2-a][1,4]diazepin-12-yl)benzonitrile], the IC50 was less than 0.05 µM. Consider `CN(C)C[C@@H]1CN(c2ccc3c(n2)Cn2cc(-c4ccc(C#N)cc4)cc2-c2nccn2-3)C[C@@H]1O` [Compound 299, 4-(7-((3R,4R)-3-((dimethylamino)methyl)-4-hydroxypyrrolidin-1-yl)-9H-imidazo[2,1-c]pyrido[3,2-e]pyrrolo[1,2-a][1,4]diazepin-12-yl)benzonitrile], for which the concentration for half-maximal inhibition (IC50) was less than 0.05 µM. In the case of `CN(C)[C@@H]1CN(c2ccc3c(n2)Cn2cc(-c4ccc(C#N)cc4)cc2-c2nccn2-3)C[C@H]1O` [Compound 300, 4-(7-((3R,4R)-3-(dimethylamino)-4-hydroxypyrrolidin-1-yl)-9H-imidazo[2,1-c]pyrido[3,2-e]pyrrolo[1,2-a][1,4]diazepin-12-yl)benzonitrile], the IC50 is less than 0.05 µM. With `CN(C)[C@H]1CN(c2ccc3c(n2)Cn2cc(-c4ccc(C#N)cc4)cc2-c2nccn2-3)C[C@@H]1O` [Compound 301, 4-(7-((3S,4S)-3-(dimethylamino)-4-hydroxypyrrolidin-1-yl)-9H-imidazo[2,1-c]pyrido[3,2-e]pyrrolo[1,2-a][1,4]diazepin-12-yl)benzonitrile], the 50% inhibitory concentration (IC50) was in the range of 0.1 to 0.2 µM. Next, `CN(C)[C@H]1CN(c2ccc3c(n2)Cn2cc(-c4ccc(C#N)cc4)cc2-c2nccn2-3)C[C@H]1O` [Compound 302, 4-(7-((3S,4R)-3-(dimethylamino)-4-hydroxypyrrolidin-1-yl)-9H-imidazo[2,1-c]pyrido[3,2-e]pyrrolo[1,2-a][1,4]diazepin-12-yl)benzonitrile]: 0.05 to 0.1 µM; `CN(C)[C@@H]1CN(c2ccc3c(n2)Cn2cc(-c4ccc(C#N)cc4)cc2-c2nccn2-3)C[C@@H]1O` [Compound 303, 4-(7-((3R,4S)-3-(dimethylamino)-4-hydroxypyrrolidin-1-yl)-9H-imidazo[2,1-c]pyrido[3,2-e]pyrrolo[1,2-a][1,4]diazepin-12-yl)benzonitrile]: 0.05 to 0.1 µM. Next, `CN(C)C[C@H]1CN(c2ccc3c(n2)Cn2cc(-c4ccc(C#N)cc4)cc2-c2nccn2-3)C[C@@H]1O` [Compound 306, 4-(7-((3S,4R)-3-((dimethylamino)methyl)-4-hydroxypyrrolidin-1-yl)-9H-imidazo[2,1-c]pyrido[3,2-e]pyrrolo[1,2-a][1,4]diazepin-12-yl)benzonitrile]: less than 0.05 µM. `CN(C)C[C@@H]1CN(c2ccc3c(n2)Cn2cc(-c4ccc(C#N)cc4)cc2-c2nccn2-3)C[C@H]1O` [Compound 307, 4-(7-((3R,4S)-3-((dimethylamino)methyl)-4-hydroxypyrrolidin-1-yl)-9H-imidazo[2,1-c]pyrido[3,2-e]pyrrolo[1,2-a][1,4]diazepin-12-yl)benzonitrile] showed an IC50 of less than 0.05 µM. Next, `N#Cc1ccc(-c2cc3n(c2)Cc2nc(N4CC[C@@H](CN5CCC(O)CC5)C4)ccc2-n2ccnc2-3)cc1` [Compound 308, (S)-4-(7-(3-((4-hydroxypiperidin-1-yl)methyl)pyrrolidin-1-yl)-9H-imidazo[2,1-c]pyrido[3,2-e]pyrrolo[1,2-a][1,4]diazepin-12-yl)benzonitrile]: less than 0.05 µM. The figure for `N#Cc1ccc(-c2cc3n(c2)Cc2nc(N4CCC5(CNC5)C4)ccc2-n2ccnc2-3)cc1` [Compound 310, 4-(7-(2,6-diazaspiro[3.4]octan-6-yl)-9H-imidazo[2,1-c]pyrido[3,2-e]pyrrolo[1,2-a][1,4]diazepin-12-yl)benzonitrile] is less than 0.05 µM; for `CNCC1CN(c2cc3c(cn2)-n2cnnc2-c2cc(-c4ccc(C#N)cc4)cn2C3)C1` [Compound 315, 4-(7-(3-((methylamino)methyl)azetidin-1-yl)-9H-pyrido[3,4-e]pyrrolo[1,2-a][1,2,4]triazolo[3,4-c][1,4]diazepin-12-yl)benzonitrile] it is 0.1 to 0.2 µM; for `CN(C)C[C@@H]1CCN(c2cc3c(cn2)-n2cnnc2-c2cc(-c4ccc(C#N)cc4)cn2C3)C1` [Compound 317, (S)-4-(7-(3-((dimethylamino)methyl)pyrrolidin-1-yl)-9H-pyrido[3,4-e]pyrrolo[1,2-a][1,2,4]triazolo[3,4-c][1,4]diazepin-12-yl)benzonitrile] it is 0.1 to 0.2 µM. `N#Cc1ccc(-c2cc3n(c2)Cc2cc(N4CCC5(CNC5)C4)ncc2-n2cnnc2-3)cc1` [Compound 318, 4-(7-(2,6-diazaspiro[3.4]octan-6-yl)-9H-pyrido[3,4-e]pyrrolo[1,2-a][1,2,4]triazolo[3,4-c][1,4]diazepin-12-yl)benzonitrile] yielded an IC50 of 0.1 to 0.2 µM.
